According to a flash point compilation (Sun et al. 2020):

flash point [°C] | Compound
11.00 | CO[Si](C)(OC)OC [Methyltrimethoxysilane]
30.00 | C[Si](C)(C)O[Si](C)(C)O[Si](C)(C)C [Octamethyltrisiloxane]
62.00 | CCCCCC[Si](OC)(OC)OC [Hexyltrimethoxysilane]
20.00 | C[Si](C)(C)O[SiH2]O[Si](C)(C)C [Hexamethyltrisiloxane]
57.00 | C[Si]1(C)O[Si](C)(C)O[Si](C)(C)O[Si](C)(C)O1 [Octamethylcyclotetrasiloxane]
95.00 | CCCO[Si](OCCC)(OCCC)OCCC [Tetra-n-propoxysilane]
32.00 | CC[Si](CC)(CC)CC [Tetraethylsilane]
60.00 | Cl[SiH](Cl)c1ccccc1 [Phenyldichlorosilane]
66.00 | CCCCCCC[Si](C)(Cl)Cl [n-Heptylmethyldichlorosilane]
12.00 | CCCCCC[SiH3] [Hexylsilane]
18.00 | C=C[Si](C=C)(C=C)C=C [Tetravinylsilane]
50.00 | CCO[Si](OCC)(OCC)OCC [Tetraethoxysilane]
54.00 | CCCC[Si](Cl)(Cl)Cl [n-Butyltrichlorosilane]
0.00 | C[Si](C)(C)OC(=O)C(F)(F)F [Trimethylsilyltrifluoroacetate]
144.00 | C[Si](C)(C)O[Si](C)(C)O[Si](C)(C)O[Si](C)(C)O[Si](C)(C)O[Si](C)(C)O[Si](C)(C)O[Si](C)(C)C [Octadecamethyloctasiloxane]
102.00 | C[Si](C)(C)O[Si](C)(C)O[Si](C)(C)O[Si](C)(C)O[Si](C)(C)O[Si](C)(C)C [Tetradecamethylhexasiloxane]
34.00 | C=C[Si](OCC)(OCC)OCC [Vinyltriethoxysilane]
64.00 | CCCCCC[SiH](Cl)Cl [Hexyldichlorosilane]
15.00 | C[Si](C)(C)I [Iodotrimethylsilane]
123.90 | Clc1ccc([Si](Cl)(Cl)Cl)cc1 [Trichloro(p-chlorophenyl)silane]
21.00 | CC(C)(C)[Si](Cl)(Cl)Cl [t-Butyltrichlorosilane]
-3.00 | C[Si](C)(C)Br [Trimethylbromosilane]

Continued, compound first:

Compound | flash point [°C]
C[Si](Cl)(Cl)CCCCl [3-Chloropropylmethyldichlorosilane] | 86.00
C=C[Si](C)(C)C=C [Divinyldimethylsilane] | 8.00
CN([Si](C)(C)C)[Si](C)(C)C [Heptamethyldisilazane] | 27.00
C=C[Si](C)(C)N[Si](C)(C)C=C [1,3-Divinyltetramethyldisilazane] | 34.00
C[Si](C)(C)CBr [Bromomethyltrimethylsilane] | 16.00
Cl[SiH](Cl)C1CCCC1 [Cyclopentyldichlorosilane] | 43.00
C[Si](C)(C)O[Si](C)(C)O[Si](C)(C)O[Si](C)(C)O[Si](C)(C)O[Si](C)(C)O[Si](C)(C)C [Hexadecamethylheptasiloxane] | 133.00
CC[Si](Cl)(Cl)Cl [Ethyltrichlorosilane] | -10.00
CC[SiH2]CC [Diethylsilane] | -20.00
C[Si](C)(C)O[Si](C)(C)O[Si](C)(C)O[Si](C)(C)C [Decamethyltetrasiloxane] | 62.00
C[SiH](C)Cl [Dimethylchlorosilane] | -28.00
CC[Si](C)(Cl)CC [Diethylmethylchlorosilane] | 15.00
CCO[Si](C)(C)C [Ethoxytrimethylsilane] | -27.00
CC(=O)O[Si](C)(OC(C)=O)OC(C)=O [Methyltriacetoxysilane] | 85.00
C[Si](Cl)(Cl)C(Cl)Cl [Dichloromethylmethyldichlorosilane] | 28.00
